Source: patent US10954300B2, “Use of pentoxifylline with immune checkpoint-blockade therapies for the treatment of melanoma” (THE TRUSTEES OF COLUMBIA UNIVERSITY IN THE CITY OF NEW YORK, priority 2015, dated 2021)
Entries after “also recorded” stand apart in the source; their conditions may differ.

System: B16F1 melanoma cells
Test: B16F1 melanoma growth, early treatment with PTXF or IT-603
Assay type: in vivo, C57Bl/6 WT mice
Experimental: B16F1, B16F10 and CT-26 cells were obtained from the ATCC and grown in DMEM+10% FBS medium. BRAF^CAPten^−/− cells were originally derived from an in vivo melanoma induced by topical tamoxifen treatment of Ubc^cre-ERT2 BRAF^CA Pten^F/F, as described. All cell lines were periodically tested for murine pathogens. Cells were grown in DMEM supplemented with 10% FBS. When confluence reached 60-70%, cells were detached and washed in PBS1X. Fifty thousand cells diluted in 50 μL PBS1X were injected subcutaneously in the shaved abdomen of each mouse. Tumor growth was measured daily using a caliper.
Pentoxifylline (Sigma) powder was dissolved in PBS1X and sterile filtered prior to each injection. […] For the “curative” regimen, mice were treated daily from day 5-6 (when the tumor was visible and palpable) to day 11, following the same methods. IT-603 was reconstituted in DMSO and stored at −80° C. It then was diluted in PBS1X and sterile-filtered prior to each injection. […]
5×10^4 B16F1 or 5×10^5 CT-26 or BRAF^CAPten^−/− cells diluted in sterile PBS1X were injected subcutaneously into the shaved flank of each mouse. For metastasis experiments, 2.5×10^4 B16F10 cells were injected intravenously in the tail vein. […] Anti-PD-1 (RMP1-14), anti-PD-L1 (10F.9G2) and anti-CD8 (YTS.169-4) mAbs were obtained from BioXCell. Rat IgG isotype control was from R&D Systems. […] In FIG. 11A-11G, Balb/c mice harboring CT-26 tumors received a suboptimal dose of 100 μg of anti-PD-1.
C57BI/6 WT mice were injected subcutaneously with 5×10^4 B16F1 melanoma cells, and then injected with either PBS (control), pentoxifylline, or IT-603 (red arrows). Tumor growth was monitored daily.

CC(=O)CCCCn1c(=O)c2c(ncn2C)n(C)c1=O [PTXF, 1-(5-oxohexyl)-3,7-dimethylxanthine]
size or composition of lymphoid tissues (B16F1-bearing mice, 50 mg/kg PTXF): No observable differences
adverse events (B16F1-bearing mice, 50 mg/kg PTXF, 50 mg/kg): no apparent adverse events; also recorded: No adverse effects of treatment were observed
pace of tumor growth (B16F1, daily injections of 50 mg/kg PTXF vs PBS): significant reduction in the pace of tumor growth
tumor growth (tumor volume, monitored daily) (B16F1 s.c., PTXF 50 mg/kg or IT-603 10 mg/kg on days 0, 2, 3, 4, 6 and 8, vs control vehicle): significantly reduced growth of the tumors
